{"source": "patent US9389237B2", "about": "“Methods for inhibiting the development of Huntington's disease” (priority 2003, dated 2016)", "key": {"[1]": {"tested_on": "HD transgenic mice (HDexon 1 + 159-161 CAG repeat units)", "test": "Beam walking (raised beam) of treated HD transgenic mice", "format": "in vivo", "details": "for ability to transverse the ½ in beam in the allotted time / improvement over the course of the study (continued ability to cross the ½ in^2 beam after controls were unable): HD mice, 150 seconds allotted; for ability to transverse the ½ in beam in the allotted time: versus untreated control liter mates; for improvement over the course of the study (continued ability to cross the ½ in^2 beam after controls were unable): two weeks after control animals failed; for time after untreated liter mates were unable to perform the trained task, with retained cognitive decision making and motor function: HD transgenic mice, beam task", "source_text": "(§1) 30 HD mice were obtained from the Jackson Laboratory, Bar Harbor, Me. The group consists of a 15 hemizygous female strain #2810 and 15 hemizygous males strain #2810 (containing the transgene HDexon 1+159-161 CAG repeat units). These mice were grouped as follows: • All mice received ear clips as identification, noting hair color. • 1-15 were males and 16-29 were females mouse #30 arrived dead. • Male mice: 1-4 were control animals receiving no treatment, 5,6,7,11 were grouped as E1 8, 9, 10 and 12 were grouped as E2. 13, 14 and 15 were grouped as T1, receiving 100 ug/ml testosterone weekly. • Female mice: 16-19 were control animals receiving no treatment. 20, 21, 22, 26 were grouped as E3, 23, 24, 25, 27 were grouped as E4. 28 and 29 were grouped as T2, receiving 100 ug/ml testosterone.\nUtilizing the raised beam, mice were assessed for their ability to transverse a graded series of narrow beams to reach a safety platform. The beams consisted of long strips of wood with a 12 mm or 5 mm square cross section. The beams were placed horizontally, 50 cm above each bench surface, with one end mounted on a narrow support and the other end attached to an enclosed box to which the animal could escape. Two inches of dense foam was placed under the test area to protect the animals from fall injury. Training took place in a 3 or 4 day period, where the mice were trained two to four times in a four day period using the 12 mm square beam. Once they were trained to walk the beam (i.e., traversing the 12 mm square beam in less than 20 seconds), they received two consecutive trails on each of the square beam and each of the round beams, in each case progressing from the widest to the narrowest beam. Mice were afforded 150 seconds to traverse each beam. The number of times the mice slipped off of the beam was recorded for each trial. The mean score was used for each trial."}, "[2]": {"tested_on": "HD transgenic mice (HDexon 1 + 159-161 CAG repeat units)", "test": "Body weight of hormone treated HD transgenic mice", "format": "in vivo", "details": "for Last wt Week 12 / Peak wt Weeks 8/9 / % change in weight / Change in Grams / % change: single animals; for Average % change: group average weight loss; for % change in weight / Change in Grams / % change: peak to week 12", "source_text": "as §1, with “13, 14 and 15 were grouped as T1, receiving 100 ug/ml testosterone weekly. • Female mice: 16-19 were control animals receiving no treatment. 20, 21, 22, 26 were grouped as E3, 23, 24, 25, 27 were grouped as E4.” left out\nBody Weight: All animals were weighed on a scale weekly throughout the study. All weights were recorded."}, "[3]": {"tested_on": "HD transgenic mice (HDexon 1 + 159-161 CAG repeat units)", "test": "Brain weight at week 12 of treated HD transgenic mice", "format": "in vivo", "details": "for Brain weight at week 12: single animals", "source_text": "as §1, with “were males and 16-29 were females mouse #30 arrived dead. • Male mice: 1-4 were control animals” left out, “[…],” for “5,6,7,11 were grouped as E1 8,”, “13, 14 and 15 were grouped as T1, receiving 100 ug/ml testosterone weekly. • Female mice: 16-19 were control animals receiving no treatment.” left out\nAfter euthanized, all brains of all mice were surgically removed and placed in a solution of formaldehyde and weighed on a scale. The weights were recorded."}, "[4]": {"tested_on": "mutant form of huntingtin", "test": "In vitro estradiol binding study, overall conclusion", "details": "conclusion from Table 2", "protocol": "These pure proteins were then used in the following binding protocol. Oestradiol-6-(0-carboxymethyl)oximino-(2-[125I] iodohistamine was used as the estradiol source. Buffer B preferably comprises: 250 mM tris, 150 mM NaCl, and a Dextran Charcoal solution comprising 0.05% Dextran coated charcoal in buffer B (sigma Cat#6197). About 0.5 ml of buffer B was preferably used per reaction. A total of 5 ml of Buffer B was aliquoted into a glass borosilicate tube (Fisher Cat#14-961-26) and 10 μL of Oestradiol (1125) was added containing approximately 2,000,000 cpm. About 0.5 ml of this solution was then distributed into eight labeled glass tubes (cat #14-961-260). The entire tube #1's 500 μL was counted. Tube #2 through #8 were treated in the following manner:\nTubes #2-#8 were incubated for 1 hour at room temperature, placed on ice for ten minutes, and 200 μL of the Dextran charcoal solution in buffer B was added. These tubes were then placed on ice ten minutes and then centrifuged 15 minutes at 2200 rpm in a Sorvall RC-3 refrigerated centrifuge with swinging bucket rotor (Sorvall HL-8) at 4 degrees. The entire 700 μL supernatant was removed and counted using Genesys multi-well gamma counter (Laboratories Technology, Inc.). The results are summarized below: […]"}, "[5]": {"test": "Serum hormone level (ES/TT) in treated HD mice", "details": "subcutaneous injection as emulsion with Freund's incomplete adjuvant", "method": "Hormone tests of serum were performed to verify the blood levels of estradiol or testosterone. The mice (controls=no treatment) were tested against liter mates receiving either (E1 and E3 100 ug/ml weekly) or (E2 and E4 200 ug/ml injection weekly).\nBlood specimens for estradiol assay using Elisa methodology was obtained during the study.\nStock solution of estradiol and testosterone were diluted with water and mixed with Freund's incomplete adjuvant. This was mixed continuously for 1 minute and either 100 ul (E1 and E3) or 200 ul (E2 and E4) were injected subcutaneously. […] Animals in the E1 and E3 groups were targeted to receive 100-300 pg/ml estrogen and groups E2 and E4 were targeted to receive 400-800 pg/ml of estrogen. Animals in T1 and T2 grouping were targeted to receive 100 pg/ml testosterone."}, "[6]": {"details": "female HD mice, group T1, 100 ul T dose weekly, target blood level 50-100 pg/ml"}, "[7]": {"details": "female HD mice, group T1, 100 ul T dose weekly"}, "[8]": {"details": "male HD mice, group T2, 100 ul T dose weekly, target blood level 50-100 pg/ml"}, "[9]": {"details": "male HD mice, group T2, 100 ul T dose weekly"}, "[10]": {"details": "female HD mice, group E1, 100 ul ES dose weekly, target blood level 100-300 pg/ml"}, "[11]": {"details": "female HD mice, group E1, 100 ul ES dose weekly"}, "[12]": {"details": "female HD mice, group E2, 200 ul ES dose weekly, target blood level 400-800 pg/ml"}, "[13]": {"details": "female HD mice, group E2, 200 ul ES dose weekly"}, "[14]": {"details": "male HD mice, group E3, 100 ul ES dose weekly, target blood level 100-300 pg/ml"}, "[15]": {"details": "male HD mice, group E3, 100 ul ES dose weekly"}, "[16]": {"details": "male HD mice, group E4, 200 ul ES dose weekly, target blood level 400-800 pg/ml"}, "[17]": {"details": "male HD mice, group E4, 200 ul ES dose weekly"}}, "note": "“And” between values parts separate entries of the source, which are not always exact repeats. Equal values may be shown once. “Also recorded” adds a separate entry of the source."}
{"compound": "CC12CCC(=O)C=C1CCC1[C@@H]2CCC2(C)[C@@H](OC(=O)CCC3CCCC3)CC[C@@H]12", "note": "(stereo partly drawn) [testosterone cypionate, androst-4-en-3-one,17-(3-cyclopentyl-1-oxopropoxy)-, (17β)-]", "values": [{"measurement": "ability to transverse the ½ in beam in the allotted time", "setting": "[1]", "value": "significant improvement"}, {"measurement": "improvement over the course of the study (continued ability to cross the ½ in^2 beam after controls were unable)", "setting": "[1]", "value": 16.6, "unit": "%"}, {"measurement": "time after untreated liter mates were unable to perform the trained task, with retained cognitive decision making and motor function", "setting": "[1]", "value": 14, "unit": "days"}, {"measurement": "Last wt Week 12", "setting": "[2]; [6]", "value": "17.4 g and 14.5 g"}, {"measurement": "Peak wt Weeks 8/9", "setting": "[2]; [6]", "value": "27.6 g and 21.6 g"}, {"measurement": "Average % change", "setting": "[2]; female HD mice, group T1, 100 ul T dose weekly, controls 21.7%", "value": 34.8, "unit": "%"}, {"measurement": "% change in weight", "setting": "[2]; [7]", "value": "−36.9% and −32.8%"}, {"measurement": "Change in Grams", "setting": "[2]; [7]", "value": "-10.2 g and -7.1 g"}, {"measurement": "Last wt Week 12", "setting": "[2]; [8]", "value": "17.1 g and 25.1 g and 19.0 g"}, {"measurement": "Peak wt Weeks 8/9", "setting": "[2]; [8]", "value": "23.4 g and 28.0 g and 27.0 g"}, {"measurement": "Average % change", "setting": "[2]; male HD mice, group T2, 100 ul T dose weekly, controls 27.2%", "value": 22.2, "unit": "%"}, {"measurement": "% change", "setting": "[2]; [9]", "value": "−26.9% and −10.3% and −29.6%"}, {"measurement": "Change in Grams", "setting": "[2]; [9]", "value": "-6.3 g and -2.9 g and -8.0 g"}, {"measurement": "Brain weight at week 12", "setting": "[3]; [7]", "value": 0.31, "unit": "g"}, {"measurement": "Brain weight at week 12", "setting": "[3]; [9]", "value": "0.31 g and 0.37 g and 0.33 g"}]}
{"compound": "C[C@]12CC[C@@H]3c4ccc(O)cc4CC[C@H]3[C@@H]1CC[C@@H]2O", "note": "[estradiol, 1,3,5(10)-estratriene-3,17beta-diol]", "values": [{"measurement": "affinity for mutant huntingtin", "setting": "[4]", "value": "an affinity for estradiol has been demonstrated"}]}
{"compound": "CC12CCC3c4ccc(O)cc4CCC3C1CC[C@@H]2OC(=O)CCC1CCCC1", "note": "(stereo partly drawn) [estradiol cypionate, estradiol 17-cyclopentanepropionate]", "values": [{"measurement": "ability to transverse the ½ in beam in the allotted time", "setting": "[1]", "value": "significant improvement; also recorded: able to complete the traversing of the beam in the allotted time; also recorded: significant increase in their ability to cross the beam within the time allotment"}, {"measurement": "improvement over the course of the study (continued ability to cross the ½ in^2 beam after controls were unable)", "setting": "[1]", "value": 16.6, "unit": "%"}, {"measurement": "time after untreated liter mates were unable to perform the trained task, with retained cognitive decision making and motor function", "setting": "[1]", "value": 14, "unit": "days"}, {"measurement": "Last wt Week 12", "setting": "[2]; [10]", "value": "21.7 g and 16.9 g and 18.9 g and 18.2 g"}, {"measurement": "Peak wt Weeks 8/9", "setting": "[2]; [10]", "value": "24.0 g and 19.9 g and 21.2 g and 25.0 g"}, {"measurement": "Average % change", "setting": "[2]; female HD mice, group E1, 100 ul ES dose weekly, controls 21.7%", "value": 15.5, "unit": "%"}, {"measurement": "% change in weight", "setting": "[2]; [11]", "value": "−9.0% and −15.0% and −10.8% and −27.2%"}, {"measurement": "Change in Grams", "setting": "[2]; [11]", "value": "−2.3 g (2×) and −3.0 g and −6.8 g"}, {"measurement": "Last wt Week 12", "setting": "[2]; [12]", "value": "20.5 g and 17.6 g and 13.5 g and 20.7 g"}, {"measurement": "Peak wt Weeks 8/9", "setting": "[2]; [12]", "value": "21.5 g and 21.8 g and 19.8 g and 22.5 g"}, {"measurement": "Average % change", "setting": "[2]; female HD mice, group E2, 200 ul ES dose weekly, controls 21.7%", "value": 15.7, "unit": "%"}, {"measurement": "% change in weight", "setting": "[2]; [13]", "value": "−4.6% and −19.2% and −31.0% and −8.0%"}, {"measurement": "Change in Grams", "setting": "[2]; [13]", "value": "-1.0 g and -4.2 g and -6.3 g and -1.8 g"}, {"measurement": "Last wt Week 12", "setting": "[2]; [14]", "value": "19.6 g and 22.6 g and 21.7 g and 23.5 g"}, {"measurement": "Peak wt Weeks 8/9", "setting": "[2]; [14]", "value": "26.2 g and 26.7 g and 24.8 g and 26.4 g"}, {"measurement": "Average % change", "setting": "[2]; male HD mice, group E3, 100 ul ES dose weekly, controls 27.2%", "value": 15.9, "unit": "%"}, {"measurement": "% change", "setting": "[2]; [15]", "value": "−25.0% and −15.3% and −12.5% and −10.9%"}, {"measurement": "Change in Grams", "setting": "[2]; [15]", "value": "-6.6 g and -4.1 g and -3.1 g and -2.9 g"}, {"measurement": "Last wt Week 12", "setting": "[2]; [16]", "value": "22.9 g and 19.6 g and 20.2 g and 19.4 g"}, {"measurement": "Peak wt Weeks 8/9", "setting": "[2]; [16]", "value": "26.2 g and 24.6 g and 23.7 g and 22.1 g"}, {"measurement": "Average % change", "setting": "[2]; male HD mice, group E4, 200 ul ES dose weekly, controls 27.2%", "value": 14.9, "unit": "%"}, {"measurement": "% change", "setting": "[2]; [17]", "value": "−12.5% and −20.3% and −14.7% and −12.2%"}, {"measurement": "Change in Grams", "setting": "[2]; [17]", "value": "-3.3 g and -5.0 g and -3.5 g and -2.7 g"}, {"measurement": "Brain weight at week 12", "setting": "[3]; [11]", "value": "0.33 g and 0.36 g and 0.34 g and 0.30 g"}, {"measurement": "Brain weight at week 12", "setting": "[3]; [13]", "value": "0.33 g and 0.37 g (2×)"}, {"measurement": "Brain weight at week 12", "setting": "[3]; [15]", "value": "0.37 g (2×) and 0.40 g (2×)"}, {"measurement": "Brain weight at week 12", "setting": "[3]; [17]", "value": "0.39 g and 0.34 g and 0.35 g"}, {"measurement": "increase in brain weight", "setting": "[3]; on average, lower level (100-300 Pg/ml) of estrogen treatment versus untreated", "value": "≤ 10", "unit": "%"}, {"measurement": "release after injection", "setting": "[5]", "value": "continuous over six days"}]}
